Literature values as cited in US20100158923A1, “REDUCING POLYGLUTAMINE-BASED AGGREGATION” (Northwestern University, priority 2003, published 2010).

Key:
human SST2 = human SST2 (Homo sapiens, UniProt P30874)
GH release = settings: administered orally and parenterally
IGF-1 levels = settings: administered subcutaneously

Chain of human SST2 (P30874 whole entry): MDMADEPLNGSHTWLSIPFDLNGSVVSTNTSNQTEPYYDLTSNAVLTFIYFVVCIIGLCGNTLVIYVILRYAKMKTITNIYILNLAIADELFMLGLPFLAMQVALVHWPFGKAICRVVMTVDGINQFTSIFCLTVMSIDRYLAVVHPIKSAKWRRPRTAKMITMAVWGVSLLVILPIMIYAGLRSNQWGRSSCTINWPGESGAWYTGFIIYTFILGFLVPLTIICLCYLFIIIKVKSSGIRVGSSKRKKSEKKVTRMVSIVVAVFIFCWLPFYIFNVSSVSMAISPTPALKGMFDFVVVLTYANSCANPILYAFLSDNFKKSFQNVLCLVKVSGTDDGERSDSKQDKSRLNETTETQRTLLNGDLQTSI

For `CC(C)(C)OC(=O)[C@H](CCCCN)NC(=O)[C@@H](Cc1c[nH]c2ccccc12)NC(=O)N1CCC(n2c(=O)[nH]c3ccccc32)CC1` [L-054,522], the selectivity (human SST2; SST2 binding, comparison receptors not stated) is given as “highly selective” and the Kd (human SST2; binding to human SST2, read-out: apparent Kd) is given as 0.01 nM.

In the case of `CC(C)(N)C(=O)N[C@H](COCc1ccccc1)C(=O)N1CCC2(CC1)CN(S(C)(=O)=O)c1ccccc12` [MK-0677], the GH-releasing effects (GH release) is given as “potent GH-releasing effects”.

For “Pegvisomant: modified human GH in which nine amino acids have been replaced, with polyethylene glycol polymers; GH receptor antagonist”, the “effect on IGF-1 levels” value (IGF-1 levels) is listed as “dose dependent reduction”.

In the case of “[N-acetyl-Tyr^1,D-Arg^2] GHRH^1-29NH2 [standard GHRH antagonist]”, the “effect on human GH secretory response to exogenous GHRH” value (GH secretion; response to exogenous GHRH) is given as “inhibits” and the “effect on spontaneous GH secretion” value (GH secretion; spontaneous GH secretion) is given as “lowers”.
